Among the data in patent US9408850B2, “Substituted indazole derivatives active as kinase inhibitors” (NERVIANO MEDICAL SCIENCES S.R.L., priority 2011, dated 2016) are IC50 values, retold here.

The target in experiment [1] is KIT cytoplasmic domain (GST fused protein) (Homo sapiens (Human), UniProt P10721). Kind of experiment: Biochemical assay for inhibitors of KIT kinase activity. To be noted: 4 nM pre activated enzyme, 4.4 microM ATP, 60 minutes at r.t. How it is done: KIT cytoplasmic domain (aa 544-976end of the 976 aminoacid long full length sequence, accession number P10721 of UniProtKB/Swiss-Prot database) was cloned into pVL vector for expression in insect cells through the baculovirus system. The GST-KIT cytoplasmic domain has been expressed in Sf21 cells infected for 66 hrs at 27° C. The recombinant protein has been purified by affinity on GSH-sepharose and eluted with glutathione. […] General Principle-A specific peptidic substrate was trans-phosphorylated by the kinase in the presence of ATP traced with 33Pγ-ATP. At the end of the phosphorylation reaction, the not reacted ATP, cold and radioactive, was captured by an excess of dowex ion exchange resin that eventually settled by gravity to the bottom of the reaction plate. The supernatant was subsequently withdrawn and transferred into a counting plate that was then evaluated by β-counting. • ii. Dowex resin preparation-500 g of wet resin (SIGMA, custom prepared resin DOWEX 1×8 200-400 mesh, 2.5 Kg) were weighed out and diluted to 2 L in 150 mM sodium formate, pH 3.00. The resin was allowed to settle down overnight and then the supernatant was discarded. After three washes as above over a couple of days, the resin was allowed to settle and two volumes (with respect to the resin volume) were added of 150 mM sodium formate buffer. Biochemical Assay for Inhibitors of FLT3 Kinase Activity • i. Enzyme-The assay was performed using FLT3 cytoplasmic domain product and purified in house as GST fused protein. […] The peptide was purchased from American Peptide Company (Sunnyvale, Calif.). Biochemical Assay for Inhibitors of KIT Kinase Activity • i. Enzyme-The assay has been performed using KIT cytoplasmic domain product and purified in house as GST fused protein. […] NO: 2). The peptide was purchased from American Peptide Company (Sunnyvale, Calif.). Compound Testing • i. […] An automated station for serial dilutions (Biomek FX, Beckman) was used for producing 1:3 dilutions in 100% DMSO, from line A1 to A10, and for all the compounds in the column. […] The following dispensation into the plates plus 3 cycles of mixing, done by the robot itself, started the kinase reaction. At this point, the correct concentrations were restored for all the reagents. The robot incubated the plates for 60 minutes at r.t., and then stopped the reaction by pipetting 60 microL of dowex resin suspension into the reaction mix. In order to avoid tip clogging, wide bore tips were used to dispense the resin suspension. Three cycles of mixing were done immediately after the addition of the resin. Another mixing cycle was performed after all the plates were stopped, this time using normal tips: the plates were then allowed to rest for about one hour in order to allow resin sedimentation. […] Data Fitting-Data were analyzed by an internally customized version of the SW package “Assay Explorer” that provided sigmoidal fitting of the ten-dilutions curves for IC50 determination in the secondary assays/hit confirmation routines. Cell-Based Assays for Inhibitors of FLT3 Kinase Activity In vitro Cell Proliferation Assay for Inhibitors of FLT3 Kinase Activity

In experiment [2] the target is FLT3 cytoplasmic domain (GST fused protein) (Homo sapiens (Human), UniProt P36888). Nature of the experiment: Biochemical assay for inhibitors of FLT3 kinase activity. To be noted: 2 nM pre activated enzyme, 254 microM ATP, 60 minutes at r.t. As for the experimental part: FLT3 cytoplasmic domain (aa 564-993end of the 993 aminoacid long full length sequence, accession number P36888 of UniProtKB/Swiss-Prot. database) was amplified by PCR starting from a testis cDNA library and then cloned into pVL vector for expression in insect cells through the baculovirus system. The GST-FLT3 cytoplasmic domain has been expressed in Sf21 cells infected for 72 hours at 27° C. The recombinant protein has been purified by affinity on GSH-sepharose and eluted with glutathione. A further purification step has been performed on heparine sepharose. […] General Principle-A specific peptidic substrate was trans-phosphorylated by the kinase in the presence of ATP traced with 33Pγ-ATP. At the end of the phosphorylation reaction, the not reacted ATP, cold and radioactive, was captured by an excess of dowex ion exchange resin that eventually settled by gravity to the bottom of the reaction plate. The supernatant was subsequently withdrawn and transferred into a counting plate that was then evaluated by β-counting. • ii. Dowex resin preparation-500 g of wet resin (SIGMA, custom prepared resin DOWEX 1×8 200-400 mesh, 2.5 Kg) were weighed out and diluted to 2 L in 150 mM sodium formate, pH 3.00. The resin was allowed to settle down overnight and then the supernatant was discarded. After three washes as above over a couple of days, the resin was allowed to settle and two volumes (with respect to the resin volume) were added of 150 mM sodium formate buffer. Biochemical Assay for Inhibitors of FLT3 Kinase Activity • i. Enzyme-The assay was performed using FLT3 cytoplasmic domain product and purified in house as GST fused protein. […] NO: 1). The peptide was purchased from American Peptide Company (Sunnyvale, Calif.). Biochemical Assay for Inhibitors of KIT Kinase Activity • i. Enzyme-The assay has been performed using KIT cytoplasmic domain product and purified in house as GST fused protein. […] NO: 2). The peptide was purchased from American Peptide Company (Sunnyvale, Calif.). Compound Testing • i. […] An automated station for serial dilutions (Biomek FX, Beckman) was used for producing 1:3 dilutions in 100% DMSO, from line A1 to A10, and for all the compounds in the column. […] The following dispensation into the plates plus 3 cycles of mixing, done by the robot itself, started the kinase reaction. At this point, the correct concentrations were restored for all the reagents. The robot incubated the plates for 60 minutes at r.t., and then stopped the reaction by pipetting 60 microL of dowex resin suspension into the reaction mix. In order to avoid tip clogging, wide bore tips were used to dispense the resin suspension. Three cycles of mixing were done immediately after the addition of the resin. Another mixing cycle was performed after all the plates were stopped, this time using normal tips: the plates were then allowed to rest for about one hour in order to allow resin sedimentation. […] Data Fitting-Data were analyzed by an internally customized version of the SW package “Assay Explorer” that provided sigmoidal fitting of the ten-dilutions curves for IC50 determination in the secondary assays/hit confirmation routines. Cell-Based Assays for Inhibitors of FLT3 Kinase Activity In vitro Cell Proliferation Assay for Inhibitors of FLT3 Kinase Activity

Each structure is given as a SMILES string. pIC50: −log10 of the molar value. Where a name gives a salt, the structure may show the parent alone.

Sequence of KIT cytoplasmic domain (GST fused protein) (P10721 544-976): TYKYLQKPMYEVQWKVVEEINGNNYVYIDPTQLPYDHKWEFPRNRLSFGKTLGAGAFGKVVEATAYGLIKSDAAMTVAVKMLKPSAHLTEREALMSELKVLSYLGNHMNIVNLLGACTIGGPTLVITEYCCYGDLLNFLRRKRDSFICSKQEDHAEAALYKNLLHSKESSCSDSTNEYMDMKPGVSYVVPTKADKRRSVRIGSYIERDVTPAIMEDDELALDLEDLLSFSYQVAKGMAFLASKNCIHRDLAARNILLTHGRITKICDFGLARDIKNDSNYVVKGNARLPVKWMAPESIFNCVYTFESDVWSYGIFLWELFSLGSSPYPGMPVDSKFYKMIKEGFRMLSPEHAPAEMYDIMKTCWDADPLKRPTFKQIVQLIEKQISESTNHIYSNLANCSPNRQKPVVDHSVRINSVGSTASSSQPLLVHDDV
Sequence of FLT3 cytoplasmic domain (GST fused protein) (P36888 564-993): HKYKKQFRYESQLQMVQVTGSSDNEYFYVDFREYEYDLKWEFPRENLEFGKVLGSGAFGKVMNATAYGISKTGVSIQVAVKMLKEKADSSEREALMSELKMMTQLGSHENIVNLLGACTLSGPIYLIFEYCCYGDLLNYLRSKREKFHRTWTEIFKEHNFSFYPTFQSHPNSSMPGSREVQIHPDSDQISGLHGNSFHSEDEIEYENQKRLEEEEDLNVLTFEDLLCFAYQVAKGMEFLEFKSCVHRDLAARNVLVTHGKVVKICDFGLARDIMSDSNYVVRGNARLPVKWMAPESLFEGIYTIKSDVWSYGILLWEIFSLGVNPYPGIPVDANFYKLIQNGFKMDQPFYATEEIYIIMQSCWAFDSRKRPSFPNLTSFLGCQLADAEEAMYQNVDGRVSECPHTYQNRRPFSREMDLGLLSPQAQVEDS

A word on the pIC50: it is −log10 of the IC50, conventionally taken in molar units. Turning to `CN1CCN(c2ccc(C(=O)Nc3n[nH]c4cc(OCCOc5ccccc5)ccc34)cc2)CC1` [Cpd. 10, 4-(4-Methyl-piperazin-1-yl)-N-[6-(2-phenoxy-ethoxy)-1H-indazol-3-yl]-benzamide], the values for the pIC50 in experiment [1] and in experiment [2] were 6.02 and above 7.30, respectively.

Regarding `CN1CCN(c2ccc(C(=O)Nc3n[nH]c4cc(OCCOCc5ccccc5)ccc34)cc2)CC1` [Cpd. 11, N-[6-(2-Benzyloxy-ethoxy)-1H-indazol-3-yl]-4-(4-methyl-piperazin-1-yl)-benzamide], the negative logarithm of the IC50 (pIC50) in experiment [1] was 6.95; in experiment [2] it was above 7.30.

On to `CN1CCN(c2cccc(C(=O)Nc3n[nH]c4cc(OCCOCc5ccccc5)ccc34)c2)CC1` [Cpd. 29, N-[6-(2-Benzyloxy-ethoxy)-1H-indazol-3-yl]-3-(4-methyl-piperazin-1-yl)-benzamide hydrochloride], for which the negative-log IC50 (pIC50) in experiment [1] is 5.97; in experiment [2], 6.20.

For `O=C(Nc1n[nH]c2cc(OCCOCc3ccccc3)ccc12)c1ccc(N2CC(N3CCCC3)C2)cc1` [Cpd. 28, N-[6-(2-Benzyloxy-ethoxy)-1H-indazol-3-yl]-4-(3-pyrrolidin-1-yl-azetidin-1-yl)-benzamide], the pIC50 in experiment [1] is 6.51; in experiment [2], 6.87.

As to `CN1CCN(c2ccc(C(=O)Nc3n[nH]c4cc(OC5CCN(Cc6ccccc6)CC5)ccc34)cc2)CC1` [Cpd. 6, N-[6-(1-Benzyl-piperidin-4-yloxy)-1H-indazol-3-yl]-4-(4-methyl-piperazin-1-yl)-benzamide], the results for the pIC50 in experiment [1] and in experiment [2] were 5.16 and 6.61, respectively.

On to `CC(C)(C)OC(=O)N1CCN(c2ccc(C(=O)Nc3n[nH]c4cc(OCCOCc5ccccc5)ccc34)cc2)CC1` [Cpd. 18, 4-{4-[6-(2-Benzyloxy-ethoxy)-1H-indazol-3-ylcarbamoyl]-phenyl}-piperazine-1-carboxylic acid tert-butyl ester], for which the pIC50 is 5.86 in experiment [1] and 6.38 in experiment [2].

Take `COc1ccc(COCCOc2ccc3c(NC(=O)c4ccc(N5CCN(C)CC5)cc4)n[nH]c3c2)cc1` [Cpd. 40, N-{6-[2-(4-Methoxy-benzyloxy)-ethoxy]-1H-indazol-3-yl}-4-(4-methyl-piperazin-1-yl)-benzamide]: the pIC50 was 7.06 in experiment [1] and above 7.30 in experiment [2].

In the case of `O=C(Nc1n[nH]c2cc(OCCOCc3ccccc3)ccc12)c1ccc(NCCN2CCOCC2)cc1` [Cpd. 25, N-[6-(2-Benzyloxy-ethoxy)-1H-indazol-3-yl]-4-(2-morpholin-4-yl-ethylamino)-benzamide hydrochloride], the pIC50 is 6.71 in experiment [1] and 7.13 in experiment [2].

For the compound `CN1CCN(c2ccc(C(=O)Nc3n[nH]c4cc(OCCOCc5ccc(F)cc5)ccc34)cc2)CC1` [Cpd. 32, N-{6-[2-(4-Fluoro-benzyloxy)-ethoxy]-1H-indazol-3-yl}-4-(4-methyl-piperazin-1-yl)-benzamide], the pIC50 in experiment [1] and in experiment [2] was above 7.30 throughout.

On to `CN1CCC(Oc2ccc(C(=O)Nc3n[nH]c4cc(OCCOCc5ccccc5)ccc34)cc2)CC1` [Cpd. 22, N-[6-(2-Benzyloxy-ethoxy)-1H-indazol-3-yl]-4-(1-methyl-piperidin-4-yloxy)-benzamide], for which the pIC50 is 7.26 in experiment [1] and 7.25 in experiment [2].

On to `CN(C)C1CCN(c2ccc(C(=O)Nc3n[nH]c4cc(OCCOCc5ccccc5)ccc34)cc2)CC1` [Cpd. 15, N-[6-(2-Benzyloxy-ethoxy)-1H-indazol-3-yl]-4-(4-dimethylamino-piperidin-1-yl)-benzamide], for which the pIC50 in experiment [1] is 7.12; in experiment [2], above 7.30.

Turning to `CN1CCC(CNc2ccc(C(=O)Nc3n[nH]c4cc(OCCOCc5ccccc5)ccc34)cc2)CC1` [Cpd. 27, N-[6-(2-Benzyloxy-ethoxy)-1H-indazol-3-yl]-4-[(1-methyl-piperidin-4-ylmethyl)-amino]-benzamide], the pIC50 in experiment [1] was 7.04; in experiment [2], above 7.30.

On to `CN1CCN(c2ccc(C(=O)Nc3n[nH]c4cc(Oc5cccc(F)c5)ccc34)cc2)CC1` [Cpd. 3, N-[6-(3-Fluoro-phenoxy)-1H-indazol-3-yl]-4-(4-methyl-piperazin-1-yl)-benzamide], for which the pIC50 in experiment [1] was 6.25; in experiment [2], 6.19.

With `CN1CCN(c2ccc(C(=O)Nc3n[nH]c4cc(Oc5ccccc5)ccc34)cc2)CC1` [Cpd. 2, 4-(4-Methyl-piperazin-1-yl)-N-(6-phenoxy-1H-indazol-3-yl)-benzamide], the pIC50 was 6.76 in experiment [1] and 5.95 in experiment [2].

For `CN1CCN(c2ccc(C(=O)Nc3n[nH]c4cc(Oc5cccc(OCc6ccccc6)c5)ccc34)cc2)CC1` [Cpd. 9, N-[6-(3-Benzyloxy-phenoxy)-1H-indazol-3-yl]-4-(4-methyl-piperazin-1-yl)-benzamide], the pIC50 in experiment [1] was 6.15; in experiment [2] it was 5.82.

With `CN(C)CCN(C)c1ccc(C(=O)Nc2n[nH]c3cc(OCCOCc4ccccc4)ccc23)cc1` [Cpd. 16, N-[6-(2-Benzyloxy-ethoxy)-1H-indazol-3-yl]-4-[(2-dimethylamino-ethyl)-methyl-amino]-benzamide], the pIC50 in experiment [1] was 6.97; in experiment [2] it was above 7.30.

Take `CN1CCN(c2ccc(C(=O)Nc3n[nH]c4cc(OC/C=C/c5ccccc5)ccc34)cc2)CC1` [Cpd. 39, 4-(4-Methyl-piperazin-1-yl)-N-[6-((E)-3-phenyl-allyloxy)-1H-indazol-3-yl]-benzamide]: the pIC50 is 6.28 in experiment [1] and 7.21 in experiment [2].

With `CN1CCN(c2ccc(C(=O)Nc3n[nH]c4cc(Oc5ccc(OCc6ccccc6)cc5)ccc34)cc2)CC1` [Cpd. 4, N-[6-(4-Benzyloxy-phenoxy)-1H-indazol-3-yl]-4-(4-methyl-piperazin-1-yl)-benzamide], the pIC50 in experiment [1] was below 5.00; in experiment [2], 6.01.

Consider `C[N+]1([O-])CCN(c2ccc(C(=O)Nc3n[nH]c4cc(OCCOCc5ccc(C(F)(F)F)cc5)ccc34)cc2)CC1` [Cpd. 42, 4-(4-Methyl-4-oxy-piperazin-1-yl)-N-{6-[2-(4-trifluoromethyl-benzyloxy)-ethoxy]-1H-indazol-3-yl}-benzamide hydrochloride], for which the pIC50 in experiment [1] was 7.26; in experiment [2] it was above 7.30.
